# In PMC11002876, “KcsA-Kv1.x chimeras with complete ligand-binding sites provide improved predictivity for screening selective Kv1.x blockers” (The Journal of Biological Chemistry, 2024):
# “Also recorded” adds a separate entry of the source. Like-named read-outs stand apart in the source and are kept apart here. Where a SMILES comes first, the peptide text is derived from it.
# Experiments:
# [1] = target: T1, KcsA-Kv1.2 T-only chimera (Streptomyces lividans, UniProt P0A334, R52A/G53D/A54E/P55R/G56E/A57S/L59F/I60P/T61S/Y62I/R64D); assay: Phage-binding competition assay, KcsA-Kv1.2 T-only; design: species or system human Kv1.2 turret in Streptomyces lividans KcsA; details: for binding to KcsA-Kv1.2 T-only, in words: HgTx1-phage competition, Fig. 7E (ligand-binding pattern); for Rank, T-only chimera (Kv1.2): rank by competition IC50 among MTX, ShK, KTX1
# T1 sequence (P0A334 1-160 R52A/G53D/A54E/P55R/G56E/A57S/L59F/I60P/T61S/Y62I/R64D): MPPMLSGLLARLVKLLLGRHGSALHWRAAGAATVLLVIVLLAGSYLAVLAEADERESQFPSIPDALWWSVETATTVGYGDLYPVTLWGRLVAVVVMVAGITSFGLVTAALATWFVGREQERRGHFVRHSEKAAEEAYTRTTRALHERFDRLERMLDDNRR
# Procedure: (§1) Phage stock solutions were diluted to working concentration with phage resuspension buffer supplemented with 2 mM DDM. For protein immobilization, the following amounts were used in a final volume of 50 μl/well: wt KcsA, 0.1 μg; KcsA-Kv1.1 T-only, 0.005 μg; KcsA-Kv1.1 T+F, 0.02 μg; KcsA-Kv1.2 T-only, 0.01 μg; KcsA-Kv1.2 T+F, 0.1 μg; KcsA-Kv1.3 T-only, 0.01 μg; and KcsA-Kv1.3 T+F, 0.1 μg. Protein samples were diluted in 50 μl of storage buffer (20 mM Tris pH8.0, 300 mM KCl, 2 mM DDM) and were added to the designated wells of a Pierce Clear, 96-Well Nickel Coated Plate (15442, Thermo Fisher Scientific), then incubated for 1 h at room temperature on a horizontal shaker at 130 rpm. The plate was blocked for 1 h at room temperature with 180 μl/well TBS-BSA supplemented with 1 mM DDM. Following blocking, the wells were washed 4× with washing buffer (300 μl TBS-Tween, 0.1% v/v) using a Wellwash Versa microplate washer (Thermo Fisher Scientific); then 50 μl phage solution (in TBS-BSA-Tween, 0.1% v/v, 2 mM DDM) at determined phage concentration was added to the wells and incubated for 1 h at room temperature on a horizontal shaker. The plate was washed 4× with washing buffer, then 50 μl anti-M13 IgG HRP (MA5-36125, Invitrogen) diluted to 1:2500 in TBS-Tween (0.1% v/v) was added to the wells and incubated for 1 h at room temperature. The plate was washed again 4× with 300 μl/well washing buffer. Finally, 50 μl/well 1-Step Ultra TMB-ELISA solution (34028, Thermo Fisher Scientific) was added to the wells, and the developing signal was stopped with 50 μl 1M HCl after 5 to 10 min. The light absorbance signal was read at 450 nm with Byonoy absorbance 96 plate reader (Byonoy GmbH).
# (§2) For protein immobilization, the following amounts were used in a final volume of 50 μl/well: KcsA-Kv1.1 T-only, 0.005 μg; KcsA-Kv1.1 T+F, 0.01 μg; KcsA-Kv1.2 T-only, 0.025 μg; KcsA-Kv1.2 T+F, 0.0125 μg; KcsA-Kv1.3 T-only, 0.01 μg; and KcsA-Kv1.3 T+F, 0.1 μg. Protein samples were diluted in storage buffer. Binding of given concentrations of relevant ligand-displaying phages quantified by light absorbance ([…]) were investigated in a similar manner as in phage ELISA-binding assay, while different concentrations of competing toxin test substances were applied simultaneously. The results were converted to percent inhibitions (percent displacement) of the indicator phage binding, and relative affinities of the tested toxins were assessed by plotting percent displacements against log concentrations and determining half maximal inhibitory concentrations (IC50) by sigmoidal curve fitting using “Sigmoidal dose-response (variable slope) with least squares method” algorithm in GraphPad Prism 8 using the following equation: Y=Bottom+Top−Bottom/1+10^(LogEC50−×)⋅HillSlope
# [2] = target: T2, KcsA-Kv1.2 T-only chimera (Streptomyces lividans, UniProt P0A334, A54E/A57S/G53D/G56E/I60P/L59F/P55R/R52A/R64D/T61S/Y62I); assay: Phage-binding competition assay, KcsA-Kv1.2 T-only; design: species or system human Kv1.2 turret in Streptomyces lividans KcsA
# T2 sequence (P0A334 1-160 R52A/G53D/A54E/P55R/G56E/A57S/L59F/I60P/T61S/Y62I/R64D): T1 sequence (P0A334 1-160 R52A/G53D/A54E/P55R/G56E/A57S/L59F/I60P/T61S/Y62I/R64D)
# Procedure: as §1, §2
# [3] = test system: KCa3.1; details: cited from earlier work
# Excerpt: (§3) Peptide toxins of venomous animal origin as lead molecules for optimization may offer an advantage over small molecules in terms of potentially greater affinity and specificity. These miniproteins are usually up to 50 amino acids in length and can adopt distinct conformation with secondary structural elements stabilized by several disulfide bonds ([9], [10], [11]). Due to their considerable surface area, miniproteins can form stable complexes with target proteins through extensive interaction surfaces ([12], [13]). The miniprotein Kv1.3 blocker drug candidate, Dalazatide—a synthetic derivative ...
# [4] = test system: mouse Kv1.1; details: cited from earlier work
# Excerpt: as §3
# [5] = test system: Kv1.2; details: cited from earlier work
# Excerpt: as §3
# [6] = HgTx1-phage competition, KcsA-Kv1.2 T-only, value given in figure, sigmoidal fit to means of three replicates, read-out: IC50 (Fig. 7E)
Structure (SMILES),"binding to KcsA-Kv1.2 T-only, in words [1]","Rank, T-only chimera (Kv1.2) [1]","IC50 [2, 6]","binding to KcsA-Kv1.2 T-only, in words ([1]; listed as MTX1)","IC50 ([2]; displacement of HgTx1-phage, KcsA-Kv1.2 T-only 0.025 μg/well on nickel-coated plate, mean ± SD (n = 3), NQ = not quantifiable, read-out: IC50, T-only chimera (Kv1.2))",selectivity for Kv1.3 over KCa3.1 [3],selectivity for Kv1.3 over mouse Kv1.1 [4],selectivity for Kv1.3 over Kv1.2 [5]
"CC[C@H](C)[C@H](NC(=O)[C@H](CCC(=O)O)NC(=O)[C@@H](NC(=O)CN)C(C)C)C(=O)N[C@@H](CC(N)=O)C(=O)N[C@H](C(=O)N[C@@H](CCCCN)C(=O)N[C@H]1CSSC[C@@H]2NC(=O)[C@H](CCCCN)NC(=O)CNC(=O)[C@H](Cc3ccccc3)NC(=O)[C@H](CCCNC(=N)N)NC(=O)[C@H](CCSC)NC(=O)CNC(=O)[C@H](C)NC(=O)[C@H](CC(=O)O)NC(=O)[C@H](CCCCN)NC(=O)[C@@H]3CSSC[C@@H](C(=O)N[C@H](C(=O)N4CCC[C@H]4C(=O)N[C@@H](CCCCN)C(=O)O)[C@@H](C)O)NC(=O)[C@H](Cc4c[nH]cn4)NC(=O)[C@H](CSSC[C@H](NC(=O)[C@H](CCC(N)=O)NC(=O)[C@@H]4CCCN4C(=O)[C@H](CO)NC(=O)CNC(=O)[C@H](CO)NC1=O)C(=O)N[C@@H](CC(C)C)C(=O)N[C@@H](CCCCN)C(=O)N1CCC[C@H]1C(=O)N3)NC(=O)[C@H](CCCCN)NC(=O)[C@H](CCCNC(=N)N)NC(=O)[C@H](CC(N)=O)NC(=O)[C@H](CCSC)NC2=O)C(C)C [KTX1, Kaliotoxin-1]",inconsistent with their published channel blocking potencies; also recorded: ShK > KTX1 > MTX,2,0.184 nM,–,–,–,–,–
"CC[C@H](C)[C@@H]1NC(=O)[C@@H]2CSSC[C@H](NC(=O)[C@H](CO)NC(=O)[C@@H](N)C(C)C)C(=O)N[C@@H]([C@@H](C)O)C(=O)NCC(=O)N[C@@H](CO)C(=O)N[C@@H](CCCCN)C(=O)N[C@@H](CC(=O)O)C(=O)N[C@@H](CSSC[C@@H](C(=O)N[C@@H](CCCCN)C(=O)N[C@H]3CSSC[C@@H](C(N)=O)NC(=O)CNC(=O)[C@H](Cc4ccc(O)cc4)NC3=O)NC(=O)[C@H](CO)NC(=O)[C@H](CCCCN)NC(=O)[C@H](CC(N)=O)NC1=O)C(=O)N[C@@H](Cc1ccc(O)cc1)C(=O)N[C@@H](C)C(=O)N1CCC[C@H]1C(=O)N[C@H]1CSSC[C@H](NC(=O)CNC(=O)[C@H]([C@@H](C)O)NC(=O)[C@H](CCC(N)=O)NC(=O)[C@H](CCCCN)NC(=O)[C@H](CCCNC(=N)N)NC1=O)C(=O)N1CCC[C@H]1C(=O)N[C@@H](CC(N)=O)C(=O)N[C@@H](C)C(=O)N[C@@H](CCCCN)C(=O)N2 [MTX, Maurotoxin] (HELM PEPTIDE1{V.S.C.T.G.S.K.D.C.Y.A.P.C.R.K.Q.T.G.C.P.N.A.K.C.I.N.K.S.C.K.C.Y.G.C.[am]}$PEPTIDE1,PEPTIDE1,3:R3-24:R3|PEPTIDE1,PEPTIDE1,9:R3-29:R3|PEPTIDE1,PEPTIDE1,13:R3-19:R3|PEPTIDE1,PEPTIDE1,31:R3-34:R3$$$V2.0; N-terminus and C-terminus assumed)",ShK > KTX1 > MTX; also recorded: completely lost its affinity,3,–,negligible binding,> 1000 nM,–,–,–
"CC[C@H](C)[C@@H]1NC(=O)[C@@H](NC(=O)[C@H](CO)NC(=O)[C@@H](N)CCCNC(=N)N)CSSC[C@@H](C(=O)O)NC(=O)[C@H]([C@@H](C)O)NC(=O)CNC(=O)[C@@H]2CSSC[C@@H]3NC(=O)[C@H](CCC(N)=O)NC(=O)[C@H](Cc4ccccc4)NC(=O)[C@H](C)NC(=O)[C@H]([C@@H](C)O)NC(=O)[C@H](CSSC[C@H](NC(=O)[C@H](Cc4ccccc4)NC(=O)[C@H](CO)NC(=O)[C@H](CC(C)C)NC(=O)[C@H](CCCNC(=N)N)NC(=O)[C@H](Cc4ccc(O)cc4)NC(=O)[C@H](CCCCN)NC(=O)[C@H](CCSC)NC(=O)[C@H](CO)NC(=O)[C@H](Cc4c[nH]cn4)NC(=O)[C@H](CCCCN)NC3=O)C(=O)N[C@@H](CCCNC(=N)N)C(=O)N[C@@H](CCCCN)C(=O)N[C@@H]([C@@H](C)O)C(=O)N2)NC(=O)[C@H](CCCNC(=N)N)NC(=O)[C@H](CO)NC(=O)[C@H](CCCCN)NC(=O)[C@@H]2CCCN2C(=O)[C@H]([C@@H](C)CC)NC(=O)[C@H]([C@@H](C)O)NC(=O)[C@H](CC(=O)O)NC1=O [ShK, Stichodactyla toxin]",inconsistent with their published channel blocking potencies; also recorded: ShK > KTX1 > MTX,1,0.0701 nM,–,–,–,–,–
"CC[C@H](C)[C@H](NC(=O)[C@H](C)NC(=O)[C@H](C)NC(=O)[C@H](C)N)C(=O)N[C@@H](CO)C(=O)N[C@H]1CSSC[C@@H]2NC(=O)[C@H](CCCCN)NC(=O)CNC(=O)[C@H](CC(N)=O)NC(=O)[C@H](CCCCN)NC(=O)[C@@H]3CSSC[C@@H](C(N)=O)NC(=O)[C@H](Cc4ccc(O)cc4)NC(=O)[C@H](Cc4ccc(O)cc4)NC(=O)[C@@H]4CSSC[C@H](NC(=O)[C@H](CCCCN)NC(=O)[C@@H]5CCCN5C(=O)[C@@H]5CCCN5C(=O)[C@H](CSSC[C@H](NC(=O)[C@H](CCCCN)NC(=O)[C@H](CCCNC(=N)N)NC(=O)[C@H](CC(N)=O)NC(=O)[C@H](CCSC)NC2=O)C(=O)N[C@@H](CCCCN)C(=O)N4)NC(=O)[C@H](CCC(=O)O)NC(=O)[C@@H]2CCCN2C(=O)[C@H](CO)NC(=O)CNC(=O)[C@H](C(C)C)NC1=O)C(=O)N[C@@H](CCCNC(=N)N)C(=O)N[C@@H](C)C(=O)N[C@@H](CCC(N)=O)C(=O)NCC(=O)N3 [Vm24, Vm24 toxin]",–,–,–,–,–,limited selectivity,limited selectivity,limited selectivity
